The target in one experiment is T1, human TTK (Homo sapiens, UniProt P33981).
T1 construct: amino terminal GST fusion of full length human TTK; purchased Invitrogen
T1 sequence (P33981 1-857): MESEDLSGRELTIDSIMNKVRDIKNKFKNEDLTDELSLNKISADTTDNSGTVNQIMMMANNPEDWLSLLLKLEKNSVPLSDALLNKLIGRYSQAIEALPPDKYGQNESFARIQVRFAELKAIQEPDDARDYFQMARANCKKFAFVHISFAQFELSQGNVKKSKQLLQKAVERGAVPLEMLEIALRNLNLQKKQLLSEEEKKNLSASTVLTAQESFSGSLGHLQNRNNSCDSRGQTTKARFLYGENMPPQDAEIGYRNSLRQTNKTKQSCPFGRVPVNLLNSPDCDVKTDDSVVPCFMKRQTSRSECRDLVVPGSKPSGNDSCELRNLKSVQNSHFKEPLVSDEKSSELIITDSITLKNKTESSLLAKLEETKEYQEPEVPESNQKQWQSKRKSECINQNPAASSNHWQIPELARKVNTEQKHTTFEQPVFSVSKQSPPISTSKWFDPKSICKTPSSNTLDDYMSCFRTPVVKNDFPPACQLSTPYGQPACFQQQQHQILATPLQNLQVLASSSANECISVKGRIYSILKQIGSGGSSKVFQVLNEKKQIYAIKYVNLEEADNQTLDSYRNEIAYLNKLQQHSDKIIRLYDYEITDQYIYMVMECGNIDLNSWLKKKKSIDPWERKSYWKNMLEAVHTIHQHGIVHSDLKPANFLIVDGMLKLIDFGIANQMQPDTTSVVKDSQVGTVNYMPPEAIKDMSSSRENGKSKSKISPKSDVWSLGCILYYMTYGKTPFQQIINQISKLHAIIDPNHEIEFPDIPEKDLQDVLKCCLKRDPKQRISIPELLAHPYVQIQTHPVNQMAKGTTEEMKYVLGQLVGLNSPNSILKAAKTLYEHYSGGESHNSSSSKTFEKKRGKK
Kind of experiment: TTK inhibition assay (indirect ELISA). The settings on record: read-out: TTK IC50 Range. Type of experiment: biochemical.

Experiment [1] has as its system colon cancer cells (HCT116). Kind of experiment: Cancer cell line growth inhibition (SRB assay). Type of experiment: cell-based. The settings on record: Homo sapiens, HCT-116, read-out: Cancer Cell Line GI50 Range HCT116.
Experiment [2] relates to ovarian cancer cells (PA-1). Kind of experiment: Cancer cell line growth inhibition (SRB assay). The format is cell-based. The settings on record: read-out: Cancer Cell Line GI50 Range PA-1. A general note: Sulforhodamine B stains cellular protein and so reports cell mass.
Where [3] appears, read: HCT116 colon cancer cells, SRB assay.
Where [4] appears, read: PA-1 ovarian cancer cells, SRB assay.

SMILES strings stand for the structures. Where two headings read alike, the source gives them in different places. Where only a bound is given, the exact number is not on record here.

Procedure for human TTK: Active TTK was purchased from Invitrogen as an amino terminal GST fusion of full length human TTK. Amino terminal 6 histidine, sumo tagged human TTK (residues 1-275) was expressed in E. coli, and purified to >95% homogeneity by Ni^2+ agarose, gel filtration, and ion exchange chromatography.
TTK activity was measured using an indirect ELISA detection system. GST-TTK (0.68 nM) was incubated in the presence of 16 μM ATP (Sigma cat# A7699), 50 mM Hepes pH 7.2, 1 mM EGTA, 10 mM MgCl2, and 0.1% Pluronic in a 96 well microtitre plate pre-coated with amino terminal 6 histidine, sumo tagged TTK (amino acid residues 1-275). The reaction was allowed to proceed for 30 minutes, followed by 5 washes of the plate with Wash Buffer (phosphate buffered saline supplemented with 0.2% Tween 20), and incubation for 30 minutes with a 1:3000 dilution of primary antibody (Cell Signaling cat# 9381). The plate was washed 5 times with Wash Buffer, incubated for 30 minutes in the presence of secondary antibody coupled to horse radish peroxidase (BioRad cat# 1721019, 1:3000 concentration), washed an additional 5 times with Wash Buffer, and incubated in the presence of TMB substrate (Sigma cat# T0440). The colourimetric reaction was allowed to continue for 5 minutes, followed by addition of stop solution (0.5 N sulphuric acid), and quantified by detection at 450 nm with either a monochromatic or filter based plate reader (Molecular Devices M5 or Beckman DTX880, respectively).
Compounds were pre-incubated in the presence of enzyme for 5 minutes prior to addition of ATP and the activity remaining quantified using the above described activity assay. The % Inhibition of a compound was determined using the following formula: % Inhibition=100×(1−(experimental value−background value)/(high activity control−background value)). The IC50 value was determined using a non-linear 4 point logistic curve fit (XLfit4, IDBS) with the formula: (A+(B/(1+((x/C)^D)))), where A=background value, B=range, C=inflection point, D=curve fit parameter.

The IC50 is the point on the concentration scale where inhibition reaches its midpoint. In general, GI50 refers to the concentration at which growth is held to half of that of the control. Consider `O=C(NC(c1ccccc1)C(F)F)c1ccc2[nH]nc(-c3ccc(OC4CCN(C5COC5)CC4)cc3)c2c1` (centres unmarked) [Example A226, N-(2,2-difluoro-1-phenylethyl)-3-(4-((1-(oxetan-3-yl)piperidin-4-yl)oxy)phenyl)-1H-indazole-5-carboxamide], for which the IC50 at human TTK was less than 100 nM. The GI50 fell in the range of 100 to 500 nM in experiment [1] and 100 to 500 nM in experiment [2] (Homo sapiens, PA-1).
For the compound `O=C(N[C@H](c1ccccn1)C1CC1)c1ccc2[nH]nc(-c3ccc(N4CCN(C5COC5)CC4)cc3)c2c1` [Example A401, (S)-N-(cyclopropyl(pyridin-2-yl)methyl)-3-(4-(4-(oxetan-3-yl)piperazin-1-yl)phenyl)-1H-indazole-5-carboxamide], the IC50 at human TTK is less than 100 nM. Besides, the concentration for 50% growth inhibition (GI50) in experiment [1] is less than 100 nM; in experiment [2] (Homo sapiens, PA-1), less than 100 nM.
As to `O=CN1C2CCC1CC(Oc1ccc(-c3n[nH]c4ccc(C(=O)N[C@@H](c5ccccn5)C5CC5)cc34)cc1)C2` (stereo partly drawn) [Example A353, N-((R)-cyclopropyl(pyridin-2-yl)methyl)-3-(4-(((1R,3R,5S)-8-formyl-8-azabicyclo[3.2.1]octan-3-yl)oxy)phenyl)-1H-indazole-5-carboxamide], the IC50 at human TTK was less than 100 nM. In addition, the GI50 in experiment [1] was less than 100 nM; in experiment [2] (Homo sapiens, PA-1), less than 100 nM.
`O=C(Nc1ccc2[nH]nc(-c3ccc(NC4CCC(O)CC4)cc3)c2c1)C(c1ccsc1)N1CCCC1` (single isomer, unassigned) [Example A105, rel-N-(3-(4-(((1r,4r)-4-hydroxycyclohexyl)amino)phenyl)-1H-indazol-5-yl)-2-(pyrrolidin-1-yl)-2-(thiophen-3-yl)acetamide]: the IC50 on human TTK was less than 100 nM. Moreover, the concentration for 50% growth inhibition (GI50) in experiment [1] (setting [3]) and in experiment [2] (setting [4]) was less than 100 nM in each case.
For `O=C(NCC1(N2CCOCC2)CCCCC1)c1ccc2[nH]nc(-c3ccc(N4CCC(O)CC4)cc3)c2c1` [Example A427, 3-(4-(4-hydroxypiperidin-1-yl)phenyl)-N-((1-morpholinocyclohexyl)methyl)-1H-indazole-5-carboxamide], on human TTK, the IC50 was less than 100 nM. The GI50 in experiment [1] (setting [3]) and in experiment [2] (setting [4]) was less than 100 nM throughout.
With `CC(C)(O)C(=O)N1CCC(Oc2ccc(-c3n[nH]c4ccc(C(=O)N[C@H](c5ccccc5)C5CC5)cc34)cc2)CC1` [Example A381, (S)-N-(cyclopropyl(phenyl)methyl)-3-(4-((1-(2-hydroxy-2-methylpropanoyl)piperidin-4-yl)oxy)phenyl)-1H-indazole-5-carboxamide], the IC50 at human TTK was less than 100 nM. Moreover, the GI50 was 100 to 500 nM in experiment [1] and 100 to 500 nM in experiment [2] (Homo sapiens, PA-1).
With `O=C(NCC1(CN2CCOCC2)CC1)c1ccc2[nH]nc(-c3ccc(N4CCOCC4)cc3)c2c1` [Example A494, N-((1-(morpholinomethyl)cyclopropyl)methyl)-3-(4-morpholinophenyl)-1H-indazole-5-carboxamide], on human TTK, the IC50 is less than 100 nM. Moreover, the concentration for 50% growth inhibition (GI50) in experiment [1] (setting [3]) and in experiment [2] (setting [4]) was more than 500 nM each time.
Consider `CN1CCC(Oc2ccc(-c3n[nH]c4ccc(C(=O)NCC5(c6ccccc6)CCCCC5)cc34)cc2)CC1` [Example A470, 3-(4-((1-methylpiperidin-4-yl)oxy)phenyl)-N-((1-phenylcyclohexyl)methyl)-1H-indazole-5-carboxamide], for which the IC50 on human TTK was less than 100 nM. Also, the GI50 in experiment [1] (setting [3]) and in experiment [2] (setting [4]) was 100 to 500 nM throughout.
Consider `O=C(CC1(c2ccccc2)COC1)Nc1ccc2[nH]nc(-c3ccc(OC4CCN(C5COC5)CC4)cc3)c2c1` [Example A462, N-(3-(4-((1-(oxetan-3-yl)piperidin-4-yl)oxy)phenyl)-1H-indazol-5-yl)-2-(3-phenyloxetan-3-yl)acetamide], for which, on human TTK, the concentration for half-maximal inhibition (IC50) is 100 to 500 nM. Also, the concentration for 50% growth inhibition (GI50) in experiment [1] was more than 500 nM; in experiment [2] (Homo sapiens, PA-1), more than 500 nM.
For `C[C@@H]1CN(c2ccc(-c3n[nH]c4ccc(C(=O)NCC5(N6CCOCC6)CCCCC5)cc34)cc2)C[C@H](C)O1` [Example A454, 3-(4-((2S,6R)-2,6-dimethylmorpholino)phenyl)-N-((1-morpholinocyclohexyl)methyl)-1H-indazole-5-carboxamide], the IC50 on human TTK was less than 100 nM. Moreover, the GI50 in experiment [1] (setting [3]) and in experiment [2] (setting [4]) was 100 to 500 nM each time.
In the case of `O=C(Nc1ccc2[nH]nc(-c3ccc(N4CCOCC4)cc3)c2c1)Nc1ccccc1Cl` [Example A66, 1-(2-chlorophenyl)-3-(3-(4-morpholinophenyl)-1H-indazol-5-yl)urea], the IC50 on human TTK is more than 500 nM. The GI50 in experiment [1] (setting [3]) was more than 500 nM.
Turning to `CN1CCN(C2(CNC(=O)c3ccc4[nH]nc(-c5ccc(N6CCOCC6)cc5)c4c3)CCCCC2)CC1` [Example A448, N-((1-(4-methylpiperazin-1-yl)cyclohexyl)methyl)-3-(4-morpholinophenyl)-1H-indazole-5-carboxamide], at human TTK, the IC50 is less than 100 nM. In experiment [1] (setting [3]), the concentration for 50% growth inhibition (GI50) fell in the range of 100 to 500 nM.
The like results for `O=C(Nc1ccc2[nH]nc(-c3ccc(N4CCOCC4)nc3)c2c1)C(c1ccsc1)N1CCCC1` (centres unmarked) [Example A52, N-(3-(6-morpholinopyridin-3-yl)-1H-indazol-5-yl)-2-(pyrrolidin-1-yl)-2-(thiophen-3-yl)acetamide] were, in that order, less than 100 nM and 100 to 500 nM.
Take `CN(C)C1(CNC(=O)c2ccc3[nH]nc(-c4ccc(N5CCOCC5)cc4)c3c2)CCCCC1` [Example A450, N-((1-(dimethylamino)cyclohexyl)methyl)-3-(4-morpholinophenyl)-1H-indazole-5-carboxamide]: the IC50 on human TTK is more than 500 nM. For the same compound, the GI50 in experiment [1] (setting [3]) is more than 500 nM.
For the compound `C[C@@H]1CN(C2(CNC(=O)c3ccc4[nH]nc(-c5ccc(OC6CCN(C)CC6)cc5)c4c3)CCCCC2)C[C@H](C)O1` [Example A452, N-((1-((2S,6R)-2,6-dimethylmorpholino)cyclohexyl)methyl)-3-(4-((1-methylpiperidin-4-yl)oxy)phenyl)-1H-indazole-5-carboxamide], on human TTK, the concentration for half-maximal inhibition (IC50) is less than 100 nM. In experiment [1] (setting [3]), the concentration for 50% growth inhibition (GI50) was more than 500 nM.
Regarding `O=C(Nc1ccc2[nH]nc(-c3ccc(CN4CCOCC4)cc3)c2c1)C1CCCc2ccccc21` (centres unmarked) [Example A23, N-(3-(4-(morpholinomethyl)phenyl)-1H-indazol-5-yl)-1,2,3,4-tetrahydronaphthalene-1-carboxamide], the half-inhibitory concentration (IC50) at human TTK lay in the range of 100 to 500 nM. The GI50 in experiment [1] (setting [3]) is more than 500 nM.
The like results for `O=C(NC(c1ccccc1)C1CC1)c1ccc2[nH]nc(-c3cccc(N4CCOCC4)c3)c2c1` (centres unmarked) [Example A61, N-(cyclopropyl(phenyl)methyl)-3-(3-morpholinophenyl)-1H-indazole-5-carboxamide] were, in that order, 100 to 500 nM and more than 500 nM.
For the compound `O=C(NCC1(N2CCCCC2)CCCCC1)c1ccc2[nH]nc(-c3ccc(N4CCOCC4)cc3)c2c1` [Example A446, 3-(4-morpholinophenyl)-N-((1-(piperidin-1-yl)cyclohexyl)methyl)-1H-indazole-5-carboxamide], the half-maximal inhibitory concentration (IC50) at human TTK was in the range of 100 to 500 nM. The GI50 in experiment [1] (setting [3]) fell in the range of 100 to 500 nM.
In the case of `O=C(NC(c1ccccc1)C1CC1)c1ccc2[nH]nc(-c3ccc(N4CCOCC4)nc3)c2c1` (centres unmarked) [Example A54, N-(cyclopropyl(phenyl)methyl)-3-(6-morpholinopyridin-3-yl)-1H-indazole-5-carboxamide], the IC50 at human TTK is less than 100 nM. Moreover, in experiment [1] (setting [3]), the GI50 is more than 500 nM.
On the same counts, the results for `Cc1cc(-c2n[nH]c3ccc(C(=O)NC(c4ccccc4)C4CC4)cc23)ccc1N1CCOCC1` (centres unmarked) [Example A64, N-(cyclopropyl(phenyl)methyl)-3-(3-methyl-4-morpholinophenyl)-1H-indazole-5-carboxamide] are 100 to 500 nM and more than 500 nM.
On the same counts, the results for `Cc1cc(-c2n[nH]c3ccc(NC(=O)C(c4ccsc4)N4CCCC4)cc23)ccc1N1CCOCC1` (centres unmarked) [Example A59, N-(3-(3-methyl-4-morpholinophenyl)-1H-indazol-5-yl)-2-(pyrrolidin-1-yl)-2-(thiophen-3-yl)acetamide] are 100 to 500 nM and more than 500 nM.
On the same counts, the results for `O=C(NC(c1ccccc1)C1CC1)c1ccc2[nH]nc(-c3ccc(N4CCOCC4)c(F)c3)c2c1` (centres unmarked) [Example A65, N-(cyclopropyl(phenyl)methyl)-3-(3-fluoro-4-morpholinophenyl)-1H-indazole-5-carboxamide] are 100 to 500 nM and more than 500 nM.
On to `C[C@@H]1CN(C2(CNC(=O)c3ccc4[nH]nc(-c5ccc(N6CCOCC6)cc5)c4c3)CCCCC2)C[C@H](C)O1` [Example A451, N((1-((2S,6R)-2,6-dimethylmorpholino)cyclohexyl)methyl)-3-(4-morpholinophenyl)-1H-indazole-5-carboxamide], for which, on human TTK, the concentration for half-maximal inhibition (IC50) was 100 to 500 nM. Moreover, in experiment [1] (setting [3]), the 50% growth inhibitory concentration (GI50) is more than 500 nM.
